From US20050032160A1, “Cell-based therapies for diabetes mellitus and other glucose intolerant states” (priority 2003, published 2005)
Entries after “also recorded” stand apart in the source; their conditions may differ.

How the values were obtained:
[1] = tested on: rat INS-1 cells; details: glucose-responsive clones; correlated with pyruvate cycling; cited from earlier work
[2] = tested on: glycerol kinase overexpressing 832/13 cells; experiment: Lactate output in glycerol kinase overexpressing 832/13 cells; type: cell-based, rat; details: glycerol versus glucose
Description: (§1) FIG. 9 depicts the effect of glycerol kinase overexpression in 832/13 cells on insulin excretion, lactate output and pyruvate cycling.
(§2) In contrast, pyruvate cycling and lactate output are higher in response to glycerol than to glucose.

[3] = tested on: glycerol kinase overexpressing 832/13 cells; experiment: Insulin secretion in glycerol kinase overexpressing 832/13 cells; type: cell-based, rat; details: glucose versus glycerol
Description: as §1, §2

[4] = tested on: glycerol kinase overexpressing 832/13 cells; experiment: Pyruvate cycling (13C studies) in glycerol kinase overexpressing 832/13 cells; type: cell-based, rat; details: glycerol versus glucose
Description: as §1, §2

[5] = tested on: β-cell; details: non-metabolizable analogs of glucose; cited from earlier work
[6] = tested on: 832/13 cells; experiment: Insulin secretion assay (radioimmunoassay) in 832/13 cells; type: cell-based, rat; details: relative to glucose or pyruvate
Method: The cell line 832/13 was created from INS-1 insulinoma β-cells as described earlier (Hohmeier et al. (2000) Diabetes 49:424-430). Cells were cultured in RPMI-1640 medium containing 11 mM glucose supplemented with 10% fetal bovine serum, 10 mM HEPES, 2 mM glutamine, 1 mM sodium pyruvate and […] β-mercaptoethanol. Media was routinely changed every second day. 832/13 cells were split to a cell density of 20-30% confluence in 12 well plates. At a cell density of 90%, cells were exposed to virus by adding crude extract directly to the growth media. After 16 hours of transduction, virus containing media was removed and the cells were cultured in fresh media in additional 24 hours before secretion assays. Insulin secretion was assayed in HEPES buffered saline solution (HBSS) (114 mM NaCl, 4.7 mM KCl,1.2 mM KH2PO4, 1.16 mM MgSO4, 20 mM HEPES, 2.5 mM CaCl2, 25.5 mM NaHCO3, pH 7.2 containing 0.2% bovine serum albumin (essentially fatty acid free). Cells were washed in 1 ml of HBSS, preincubated in 1.5 ml of HBSS for 2 hour prior to a 2 hour incubation in the presence of secretagogues as indicated in the figures. The insulin levels were determined by radioimmunoassay with the Coat-A-Count kit (ICN Pharmaceuticals, Costa Mesa, Calif.) and lactate output was determined with a Lactate Reagent kit (Sigma, St. Louis, Mo.) according to protocols outlined by the manufacturer.

## O=C(O)Cc1ccccc1 [phenylacetic acid]
[1]
  effect on glucose-stimulated IS: impaired

## OCC(O)CO [glycerol]
[2]
  lactate output: higher
[3]
  stimulation of insulin secretion: to the same extent
[4]
  pyruvate cycling: higher

## O=CC[C@@H](O)[C@H](O)[C@H](O)CO [2-deoxy glucose]
[5]
  stimulation of insulin release: fail to stimulate insulin release

## CC(O)C(=O)O (stereo not shown) [lactate]
[6]; 832/13 cells overexpressing LDHA
  stimulation of insulin secretion as secretagogue: as effective as the other two fuels; also recorded: as effective as glucose or pyruvate
[6]; 832/13 cells without LDH overexpression
  stimulation of insulin secretion as secretagogue: poor secretagogue; also recorded: only a weak stimulator of IS
[6]; 832/13 cells without LDH overexpression, listed as Lactate
  stimulation of insulin secretion as secretagogue: poor secretagogue

## CO[C@@H]([C@H](O)[C@H](O)CO)[C@@H](O)C=O [3-O-methyl glucose]
[5]
  stimulation of insulin release: fail to stimulate insulin release

## O=C(O)CC(O)C(=O)O (stereo not shown) [malate]
[1]
  effect on glucose-stimulated IS: potentiated
